Where two headings read alike, the source gives them in different places. Bridge positions count the residues as written; N and C are the ends. Square brackets hold non-standard residues; d marks the D form. Peptide text beside a SMILES is read from it. * marks the point of attachment. Heptanoyl(5-Me) = CCC(C)CCCC(=O)*; Dab = NCC[C@H](N)C(=O)O
Tested on: S. maltophilia 1237289
Assay: Checkerboard colistin sulphate (CS) plus teicoplanin (TP), MIC/FIC and MBC/FBC
Assay type: cell-based, Stenotrophomonas maltophilia
Settings: agent alone, CAMHB, 5*10^5 CFU/ml; for MIC: S. maltophilia 1237289
Description: Checkerboard analysis to determine minimal inhibitory concentration (MIC)/fractional inhibitory concentration (FIC) and minimal […] (MBC)/fractional bacterial concentration (FBC) values of colistin sulphate (CS) plus teicoplanin (TP) for 6 Gram-negative strains with a bacterial load 5(1-10)*10^5 CFU/ml in a cation-adjusted Mueller-Hinton broth (CAMHB). • a. Antimicrobial stock solutions were prepared using sterile distilled water • b. CS was added along the ordinate; TP was added along the abscissa to 96 well, flat bottom, polystyrene panels with no treatment. Colistin alone was tested in triplicates. • c. Serial 2-fold dilutions starting with 640 μg/ml CS and 640 μg/ml TP were made; 15 μl volume of the serial dilutions were added for each agent to the appropriate wells; final volume at 30 μl • d. For each agent tested alone an additional 15 μl media was added to the well. 30 μl were added in control wells where none of the agent was tested. The negative control well contains 150 μl media without any additions • e. From an overnight bacterial culture in tryptic soy broth, 100 μL was added to 10 mL of fresh tryptic soy broth. This was then incubated at 37° C. for 1.5 hour at 180 rpm. • f. Bacteria in 120 μl CAMHB were added to each well (end concentration 5(1-10)*10^5 CFU/ml) • g. […] Turbidity at OD600 is determined with a plate photometer • i. By using a one-time inoculator 3 μl from each well of the 96-well plate were transferred to three blood agar plates. The plates were incubated over night at 37° C. in an ambient air incubator • j. MIC values are defined as lowest concentration which restricts bacterial growth to OD600 ≤0.1 • k. MBC values were determined by visual reading the lowest concentration which inhibits 99.9% of the growth of bacteria in the wells • l. Determination of the fractional inhibitory concentration (FIC) index and fractional bactericidal concentration (FBC) index and characterization of antimicrobial interactions was assessed […]
FIC calculation was carried out as: (MIC of drug A, tested in combination)/(MIC of drug A, tested alone)+(MIC of drug B, tested in combination)/(MIC of drug B, tested alone). FBC calculation was carried out just as well […]
Interactive categories were calculated from checkerboard analysis using MIC results from testing each agent alone and MIC results from the combination wells adjacent to the wells with growth in them […]
b. Indifference; FIC/FBC>0.5 to<4.0 c. Antagonism; FIC/FBC≥4.0 f. S. maltophilia 1237289 (IHMA), colistin resistant

Question: Which results are given for `CCC(C)CCCC(=O)N[C@@H](CCN)C(=O)N[C@H](C(=O)N[C@@H](CCN)C(=O)N[C@H]1CCNC(=O)[C@H]([C@@H](C)O)NC(=O)[C@H](CCN)NC(=O)[C@H](CCN)NC(=O)[C@H](CC(C)C)NC(=O)[C@@H](CC(C)C)NC(=O)[C@H](CCN)NC1=O)[C@@H](C)O` (stereo partly drawn) [CS, colistin sulphate] ({Heptanoyl(5-Me)}-[Dab]T[Dab][Dab][Dab][dL]L[Dab][Dab]T; lactam 4-C)?
Answer: MIC (after 48 h growth (values in brackets)): (8) mg/l; MIC (Stenotrophomonas maltophilia, 1237289, 24 h, 24 h, read-out: MIC): ≤ 0.5 µg/mL; MBC (Stenotrophomonas maltophilia, S. maltophilia, second of two rows (strain number not given; by order 1237289)): 8 µg/mL

From patent publication US20220016200A1, “PHARMACEUTICAL COMPOSITION FOR THE TREATMENT OF CYSTIC FIBROSIS” (GALENUS G.H. AG, priority 2018, published 2022)
